# The supplement of paper PMC10307832
# Legend:
# Assay in all cases: relative viability (nuclei count vs DMSO), 5 days (fraction); higher = more cells survive
# EMC-BAC-2 = tested on: EMC-BAC-2
# In short: (§1)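 Each reported value is a median over duplicate plates. It expresses relative viability: treated-well nuclei count divided by vehicle-well nuclei count. Lung cancer cell lines in 1536-well plates were dosed by pin tool a day after seeding, alone with one drug or with a fixed anchor-drug dose plus five library-drug doses (not always all listed) in √10 steps, and nuclei were counted after 5 days.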
# NCI-H1975 = tested on: NCI-H1975
# In short: as §1
# NCI-H1792 = tested on: NCI-H1792
# In short: as §1
# NCI-H596 = tested on: NCI-H596
# In short: as §1
# PC-3 [JPC-3] = tested on: PC-3 [JPC-3]
# In short: as §1
# SW 900 = tested on: SW 900
# In short: as §1
# NCI-H1666 = tested on: NCI-H1666
# In short: as §1
# HCC-366 = tested on: HCC-366
# In short: as §1
# NCI-H23 = tested on: NCI-H23
# In short: as §1
# NCI-H1734 = tested on: NCI-H1734
# In short: as §1
# NCI-H2170 = tested on: NCI-H2170
# In short: as §1
# A-427 = tested on: A-427
# In short: as §1
# LK-2 = tested on: LK-2
# In short: as §1
# LOU-NH91 = tested on: LOU-NH91
# In short: as §1
# H3255 = tested on: H3255
# In short: as §1
# NCI-H1755 = tested on: NCI-H1755
# In short: as §1
# EKVX = tested on: EKVX
# In short: as §1
# ChaGo-K-1 = tested on: ChaGo-K-1
# In short: as §1
# NCI-H441 = tested on: NCI-H441
# In short: as §1
# COR-L 105 = tested on: COR-L 105
# In short: as §1
# SK-MES-1 = tested on: SK-MES-1
# In short: as §1
# NCI-H520 = tested on: NCI-H520
# In short: as §1
smiles,measurement,setting,value
O=C(O)c1ccc(-c2c[nH]c3ncc(-c4ccccc4)cc23)cc1C1CCCC1 + NC(=O)Nc1cc(-c2cccc(F)c2)sc1C(=O)N[C@H]1CCCNC1 [AZD7762] (partner 0.2 µM),relative viability,EMC-BAC-2; first compound 0.04 µM,1.1
same,relative viability,EMC-BAC-2; first compound 0.1265 µM,1.38
same,relative viability,EMC-BAC-2; first compound 0.4 µM,1.23
same,relative viability,EMC-BAC-2; first compound 1.265 µM,0.981
same,relative viability,NCI-H1975; first compound 0.04 µM,0.738
same,relative viability,NCI-H1975; first compound 0.1265 µM,0.793
same,relative viability,NCI-H1975; first compound 0.4 µM,0.676
same,relative viability,NCI-H1975; first compound 1.265 µM,0.728
same,relative viability,NCI-H1792; first compound 0.04 µM,0.673
same,relative viability,NCI-H1792; first compound 0.1265 µM,0.959
same,relative viability,NCI-H1792; first compound 0.4 µM,0.94
same,relative viability,NCI-H1792; first compound 1.265 µM,0.634
same,relative viability,NCI-H596; first compound 0.04 µM,1.05
same,relative viability,NCI-H596; first compound 0.1265 µM,1.21
same,relative viability,NCI-H596; first compound 0.4 µM,1.08
same,relative viability,NCI-H596; first compound 1.265 µM,1.17
same,relative viability,PC-3 [JPC-3]; first compound 0.04 µM,0.693
same,relative viability,PC-3 [JPC-3]; first compound 0.1265 µM,0.967
same,relative viability,PC-3 [JPC-3]; first compound 0.4 µM,0.806
same,relative viability,PC-3 [JPC-3]; first compound 1.265 µM,0.766
same,relative viability,SW 900; first compound 0.04 µM,0.635
same,relative viability,SW 900; first compound 0.1265 µM,0.648
same,relative viability,SW 900; first compound 0.4 µM,0.755
same,relative viability,SW 900; first compound 1.265 µM,0.598
same,relative viability,NCI-H1666; first compound 0.04 µM,0.798
same,relative viability,NCI-H1666; first compound 0.1265 µM,1
same,relative viability,NCI-H1666; first compound 0.4 µM,0.875
same,relative viability,NCI-H1666; first compound 1.265 µM,0.728
same,relative viability,HCC-366; first compound 0.04 µM,0.274
same,relative viability,HCC-366; first compound 0.1265 µM,0.413
same,relative viability,HCC-366; first compound 0.4 µM,0.399
same,relative viability,HCC-366; first compound 1.265 µM,0.43
same,relative viability,NCI-H23; first compound 0.04 µM,0.218
same,relative viability,NCI-H23; first compound 0.1265 µM,0.297
same,relative viability,NCI-H23; first compound 0.4 µM,0.237
same,relative viability,NCI-H23; first compound 1.265 µM,0.328
same,relative viability,NCI-H1734; first compound 0.04 µM,0.534
same,relative viability,NCI-H1734; first compound 0.1265 µM,0.68
same,relative viability,NCI-H1734; first compound 0.4 µM,0.606
same,relative viability,NCI-H1734; first compound 1.265 µM,0.645
same,relative viability,NCI-H2170; first compound 0.04 µM,0.933
same,relative viability,NCI-H2170; first compound 0.1265 µM,1.03
same,relative viability,NCI-H2170; first compound 0.4 µM,0.895
same,relative viability,NCI-H2170; first compound 1.265 µM,0.82
same,relative viability,A-427; first compound 0.04 µM,0.826
same,relative viability,A-427; first compound 0.1265 µM,0.911
same,relative viability,A-427; first compound 0.4 µM,0.893
same,relative viability,A-427; first compound 1.265 µM,0.726
same,relative viability,LK-2; first compound 0.04 µM,0.446
same,relative viability,LK-2; first compound 0.1265 µM,0.614
same,relative viability,LK-2; first compound 0.4 µM,0.373
same,relative viability,LK-2; first compound 1.265 µM,0.49
same,relative viability,LOU-NH91; first compound 0.04 µM,0.818
same,relative viability,LOU-NH91; first compound 0.1265 µM,0.866
same,relative viability,LOU-NH91; first compound 0.4 µM,0.787
same,relative viability,LOU-NH91; first compound 1.265 µM,0.769
same,relative viability,H3255; first compound 0.04 µM,0.79
same,relative viability,H3255; first compound 0.1265 µM,0.991
same,relative viability,H3255; first compound 0.4 µM,0.953
same,relative viability,H3255; first compound 1.265 µM,0.88
same,relative viability,NCI-H1755; first compound 0.04 µM,0.488
same,relative viability,NCI-H1755; first compound 0.1265 µM,0.521
same,relative viability,NCI-H1755; first compound 0.4 µM,0.547
same,relative viability,NCI-H1755; first compound 1.265 µM,0.523
same,relative viability,EKVX; first compound 0.04 µM,0.679
same,relative viability,EKVX; first compound 0.1265 µM,0.818
same,relative viability,EKVX; first compound 0.4 µM,0.888
same,relative viability,EKVX; first compound 1.265 µM,0.593
same,relative viability,ChaGo-K-1; first compound 0.04 µM,0.845
same,relative viability,ChaGo-K-1; first compound 0.1265 µM,1.02
same,relative viability,ChaGo-K-1; first compound 0.4 µM,0.907
same,relative viability,ChaGo-K-1; first compound 1.265 µM,0.848
same,relative viability,NCI-H441; first compound 0.04 µM,1.01
same,relative viability,NCI-H441; first compound 0.1265 µM,1.23
same,relative viability,NCI-H441; first compound 0.4 µM,1.11
same,relative viability,NCI-H441; first compound 1.265 µM,1.14
O=C(O)c1ccc(-c2c[nH]c3ncc(-c4ccccc4)cc23)cc1C1CCCC1 + Cc1cc(Nc2cc(N3CCN(C)CC3)nc(Sc3ccc(NC(=O)C4CC4)cc3)n2)n[nH]1 [Tozasertib] (partner 0.1 µM),relative viability,EMC-BAC-2; first compound 0.04 µM,0.29
same,relative viability,EMC-BAC-2; first compound 0.1265 µM,0.283
same,relative viability,EMC-BAC-2; first compound 0.4 µM,0.272
same,relative viability,EMC-BAC-2; first compound 1.265 µM,0.272
same,relative viability,NCI-H1975; first compound 0.04 µM,0.681
same,relative viability,NCI-H1975; first compound 0.1265 µM,0.875
same,relative viability,NCI-H1975; first compound 0.4 µM,0.794
same,relative viability,NCI-H1975; first compound 1.265 µM,0.729
same,relative viability,NCI-H596; first compound 0.04 µM,0.863
same,relative viability,NCI-H596; first compound 0.1265 µM,0.802
same,relative viability,NCI-H596; first compound 0.4 µM,0.851
same,relative viability,NCI-H596; first compound 1.265 µM,0.93
same,relative viability,PC-3 [JPC-3]; first compound 0.04 µM,0.926
same,relative viability,PC-3 [JPC-3]; first compound 0.1265 µM,0.881
same,relative viability,PC-3 [JPC-3]; first compound 0.4 µM,0.766
same,relative viability,PC-3 [JPC-3]; first compound 1.265 µM,0.65
same,relative viability,SW 900; first compound 0.04 µM,0.638
same,relative viability,SW 900; first compound 0.1265 µM,0.585
same,relative viability,SW 900; first compound 0.4 µM,0.526
same,relative viability,SW 900; first compound 1.265 µM,0.311
same,relative viability,NCI-H1666; first compound 0.04 µM,0.627
same,relative viability,NCI-H1666; first compound 0.1265 µM,0.587
same,relative viability,NCI-H1666; first compound 0.4 µM,0.546
same,relative viability,NCI-H1666; first compound 1.265 µM,0.419
same,relative viability,COR-L 105; first compound 0.04 µM,0.304
same,relative viability,COR-L 105; first compound 0.1265 µM,0.36
same,relative viability,COR-L 105; first compound 0.4 µM,0.357
same,relative viability,COR-L 105; first compound 1.265 µM,0.36
same,relative viability,HCC-366; first compound 0.04 µM,0.128
same,relative viability,HCC-366; first compound 0.1265 µM,0.163
same,relative viability,HCC-366; first compound 0.4 µM,0.0869
same,relative viability,HCC-366; first compound 1.265 µM,0.0888
same,relative viability,NCI-H23; first compound 0.04 µM,0.355
same,relative viability,NCI-H23; first compound 0.1265 µM,0.369
same,relative viability,NCI-H23; first compound 0.4 µM,0.364
same,relative viability,NCI-H23; first compound 1.265 µM,0.353
same,relative viability,NCI-H1734; first compound 0.04 µM,0.284
same,relative viability,NCI-H1734; first compound 0.1265 µM,0.236
same,relative viability,NCI-H1734; first compound 0.4 µM,0.247
same,relative viability,NCI-H1734; first compound 1.265 µM,0.258
same,relative viability,NCI-H2170; first compound 0.04 µM,0.721
same,relative viability,NCI-H2170; first compound 0.1265 µM,0.726
same,relative viability,NCI-H2170; first compound 0.4 µM,0.679
same,relative viability,NCI-H2170; first compound 1.265 µM,0.612
same,relative viability,SK-MES-1; first compound 0.04 µM,0.93
same,relative viability,SK-MES-1; first compound 0.1265 µM,0.973
same,relative viability,SK-MES-1; first compound 0.4 µM,0.748
same,relative viability,SK-MES-1; first compound 1.265 µM,0.396
same,relative viability,NCI-H520; first compound 0.04 µM,0.504
same,relative viability,NCI-H520; first compound 0.1265 µM,0.408
same,relative viability,NCI-H520; first compound 0.4 µM,0.384
same,relative viability,NCI-H520; first compound 1.265 µM,0.483
same,relative viability,A-427; first compound 0.04 µM,0.23
same,relative viability,A-427; first compound 0.1265 µM,0.255
same,relative viability,A-427; first compound 0.4 µM,0.182
same,relative viability,A-427; first compound 1.265 µM,0.182
same,relative viability,LK-2; first compound 0.04 µM,0.186
same,relative viability,LK-2; first compound 0.1265 µM,0.161
same,relative viability,LK-2; first compound 0.4 µM,0.181
same,relative viability,LK-2; first compound 1.265 µM,0.184
same,relative viability,LOU-NH91; first compound 0.04 µM,0.584
same,relative viability,LOU-NH91; first compound 0.1265 µM,0.688
same,relative viability,LOU-NH91; first compound 0.4 µM,0.616
same,relative viability,LOU-NH91; first compound 1.265 µM,0.526
same,relative viability,H3255; first compound 0.04 µM,0.524
same,relative viability,H3255; first compound 0.1265 µM,0.693
same,relative viability,H3255; first compound 0.4 µM,0.618
same,relative viability,H3255; first compound 1.265 µM,0.604
same,relative viability,NCI-H1755; first compound 0.04 µM,0.609
same,relative viability,NCI-H1755; first compound 0.1265 µM,0.628
same,relative viability,NCI-H1755; first compound 0.4 µM,0.514
same,relative viability,NCI-H1755; first compound 1.265 µM,0.509
same,relative viability,EKVX; first compound 0.04 µM,0.404
same,relative viability,EKVX; first compound 0.1265 µM,0.443
same,relative viability,EKVX; first compound 0.4 µM,0.416
same,relative viability,EKVX; first compound 1.265 µM,0.364
same,relative viability,ChaGo-K-1; first compound 0.04 µM,0.213
same,relative viability,ChaGo-K-1; first compound 0.1265 µM,0.225
same,relative viability,ChaGo-K-1; first compound 0.4 µM,0.242
same,relative viability,ChaGo-K-1; first compound 1.265 µM,0.215
same,relative viability,NCI-H441; first compound 0.04 µM,0.71
same,relative viability,NCI-H441; first compound 0.1265 µM,0.638
same,relative viability,NCI-H441; first compound 0.4 µM,0.548
same,relative viability,NCI-H441; first compound 1.265 µM,0.325
